# US20100119516A1, “ANTI-TGF-BETA RECEPTOR II ANTIBODIES” (priority 2008, published 2010)
# Test system: EMT6 mouse tumor cells
# Experiment: EMT6 s.c. tumor model (monotherapy and combination with cyclophosphamide)
# Assay type: in vivo, mice
# Settings: i.p. 3 times each week, mAb 40 mg/kg, CTX 80 mg/kg
# Description: Athymic nude mice (Charles River Laboratories, Wilmington, Mass.), Balb/c mice, or C57B6 mice (Charles River Laboratories, Wilmington, Mass.) may be used for inoculation with mouse or human carcinoma cells. For treatment of established tumors in subcutaneous models, tumors may be allowed to grow to approximately 200 mm^3 in size, and then mice may be randomized into groups of 12-15 animals per group. In lung metastasis models, mice may be injected intravenously with tumor cells via tail vein. Animals may receive i.p. administered anti-TGFβRII mAb at a dose of 10-40 mg/kg three times each week. Mice in control groups may receive an equal volume of saline or normal IgG solution. […] Tumors may be measured twice each week with calipers. Tumor volumes may be calculated using the formula [π/6 (w1×w2×2)], where “w1” represents the largest tumor diameter and “w2” represents the smallest tumor diameter. […]
# The inhibitory activity of mAb MT1 against immunosuppressive cells, i.e. CD4/CD25/Foxp3/TGFβRII+Treg cells and Gr-1+/CD11b+/TGFβRII+ myeloid cells is evaluated in an EMT6 s.c. tumor model. The inhibitory effect of anti-TGFβRII antibody on Treg and Gr-1+/CD11b+ myeloid cell population in tumor-bearing mice may be determined by FACS analysis on the alteration of Gr-1+/CD11b+ population and CD4/CD25/Foxp3/TGFβRII+ and Gr-1+/CD11b+/TGFβRII+ population after treatment of mice with mAb MT1. […]
smiles,measurement,value
"O=P1(N(CCCl)CCCl)NCCCO1 (centres unmarked) [CTX, Cyclophosphamide]",inhibition of primary tumor growth,62%
same,inhibition of spontaneous pulmonary metastasis,96%
